Assay results as given in paper PMC12084609, “Structural insights into small-molecule agonist recognition and activation of complement receptor C3aR” (The EMBO Journal, 2025).
Numbering of substitutions follows the chain as printed. Where “and” joins values, the source holds several entries; their conditions need not be identical. Equal entries are not always repeated.

Key:
Type in all cases: cell-based
C3aR Y174^ECL2A = target: T1, C3aR Y174^ECL2A (Homo sapiens, UniProt Q16581, Y174A); experiment: GloSensor-based cAMP assay, C3aR mutant Y174A
T1 construct: expressed in transfected cells; host or cells: HEK293T
T1 sequence (Q16581 1-482 Y174A): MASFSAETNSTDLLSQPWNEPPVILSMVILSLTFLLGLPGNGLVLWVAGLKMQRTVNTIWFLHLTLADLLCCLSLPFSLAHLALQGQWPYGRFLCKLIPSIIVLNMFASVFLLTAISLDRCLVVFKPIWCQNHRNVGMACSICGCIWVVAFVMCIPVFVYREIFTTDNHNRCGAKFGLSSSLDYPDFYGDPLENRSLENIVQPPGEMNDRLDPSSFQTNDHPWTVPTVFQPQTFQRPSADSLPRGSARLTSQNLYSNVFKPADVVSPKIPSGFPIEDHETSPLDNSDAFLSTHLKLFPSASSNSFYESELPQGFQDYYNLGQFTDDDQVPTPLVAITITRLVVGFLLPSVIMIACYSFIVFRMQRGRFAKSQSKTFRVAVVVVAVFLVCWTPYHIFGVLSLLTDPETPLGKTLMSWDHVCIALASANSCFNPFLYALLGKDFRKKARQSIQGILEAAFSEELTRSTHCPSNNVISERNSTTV
Procedure: (§1) HEK293T cells were seeded on 6-well plates (NEST) and transfected with pGlosensor™-22F plasmids (Promega) and pcDNA3.1 plasmids encoding C3aR or its mutants an with N-terminal FLAG tag. After 48 h, cells were detached with Accutase solution (Sigma-Aldrich) and washed with PBS, and resuspended in assay buffer (CO2-independent medium with 0.5 mg mL^−1D-luciferin). 100,000–200,000 cells were seeded on 96-well white bottom plates (SPL) and incubated at 37 °C for 45 min followed by 45 min incubation at room temperature. After 90 min of incubation, basal luminescence signals were recorded. In total, 25 μl of test ligand with various concentrations and 1 μM Forskolin (Sigma-Aldrich) were treated to the cells and luminescence signals were measured by Tristar 2 LB 942 multimode reader (Berthold). […] Relative luminescence unit (%) was calculated with the signal of wells treated with vehicle as 0% and the signal of wells treated with 1 μM Forskolin as 100% (DiRaddo et al, [2014]). Nonlinear regression was performed using a three-parameter logistic equation.

C3aR M106^3.36A = target: T2, C3aR M106^3.36A (Homo sapiens, UniProt Q16581, M106A); experiment: GloSensor-based cAMP assay, C3aR mutant M106A
T2 construct: expressed in transfected cells; host or cells: HEK293T
T2 sequence (Q16581 1-482 M106A): T1 sequence (Q16581 1-482 Y174A) with M106A, A174Y
Procedure: as §1

C3aR L82^2.64A = target: T3, C3aR L82^2.64A (Homo sapiens, UniProt Q16581, L82A); experiment: GloSensor-based cAMP assay, C3aR mutant L82A
T3 construct: expressed in transfected cells; host or cells: HEK293T
T3 sequence (Q16581 1-482 L82A): T1 sequence (Q16581 1-482 Y174A) with L82A, A174Y
Procedure: as §1

[1] = Dunnett's multiple comparisons test, WT minus mutant

With `Cc1cc(C(c2ccc(Cl)cc2)c2ccc(Cl)cc2)sc1C(=O)N[C@@H](CCCNC(=N)N)C(=O)O` [JR14a, reference compound] the “Mean Diff. of pIC50, WT vs. Y174A” value (C3aR Y174^ECL2A; [1]) was -0.215, the IC50 (C3aR Y174^ECL2A; IC50, Y174^ECL2A, dose-response plot) was 1.61 nM and the remaining activity at 1 µM (C3aR Y174^ECL2A; Y174A, Log[JR14a (M)] -6, single replicates, read-out: cAMP response (% Forskolin)) was 10.9%. For the same molecule, the remaining activity at 0.1 µM (C3aR Y174^ECL2A; Y174A, Log[JR14a (M)] -7, single replicates, read-out: cAMP response (% Forskolin)) was 11.8%, the remaining activity at 0.01 µM (C3aR Y174^ECL2A; Y174A, Log[JR14a (M)] -8, single replicates, read-out: cAMP response (% Forskolin)) was 40.7% and the remaining activity at 0.0001 µM (C3aR Y174^ECL2A; Y174A, Log[JR14a (M)] -10, single replicates, read-out: cAMP response (% Forskolin)) was 95.8%. For the same molecule, the remaining activity at 10 pM (C3aR Y174^ECL2A; Y174A, Log[JR14a (M)] -11, single replicates, read-out: cAMP response (% Forskolin)) was 106%, the “ΔpIC50 ± SE of Diff.” value (C3aR Y174^ECL2A; Y174^ECL2A relative to WT C3aR) was 0.22 ± 0.09 and the “decrease in IC50 values vs WT” value (C3aR Y174^ECL2A; Y174^ECL2 to Ala, relatively mild effect on downstream signaling) was under 10 fold. For the same molecule, the IC50 (C3aR Y174^ECL2A; pIC50 (Replicate), Y174^ECL2A, individual replicates) was 3.63 nM and 1.55 nM and 0.871 nM, the IC50 (C3aR Y174^ECL2A; pIC50 ± SEM (Mean), Y174^ECL2A, mean of independent experiments) was 1.7 nM and the “Mean Diff. of pIC50, WT vs. M106A” value (C3aR M106^3.36A; [1]) was -0.207. The IC50 (C3aR M106^3.36A; IC50, M106^3.36A, dose-response plot) was 3.24 nM, the “ΔpIC50 ± SE of Diff.” value (C3aR M106^3.36A; M106^3.36A relative to WT C3aR) was 0.21 ± 0.09 and the IC50 (C3aR M106^3.36A; pIC50 (Replicate), M106^3.36A, individual replicates) was 3.63 nM and 7.41 nM and 1.29 nM. For the same molecule, the “Mean Diff. of pIC50, WT vs. L82A” value (C3aR L82^2.64A; [1]) was -0.402, the IC50 (C3aR L82^2.64A; IC50, L82^2.64A, dose-response plot) was 2.07 nM and the remaining activity at 1 µM (C3aR L82^2.64A; L82A, Log[JR14a (M)] -6, single replicates, read-out: cAMP response (% Forskolin)) was 9.36%. For the same molecule, the remaining activity at 0.1 µM (C3aR L82^2.64A; L82A, Log[JR14a (M)] -7, single replicates, read-out: cAMP response (% Forskolin)) was 8.92%, the remaining activity at 0.01 µM (C3aR L82^2.64A; L82A, Log[JR14a (M)] -8, single replicates, read-out: cAMP response (% Forskolin)) was 34.1% and the remaining activity at 0.001 µM (C3aR L82^2.64A; L82A, Log[JR14a (M)] -9, single replicates, read-out: cAMP response (% Forskolin)) was 62.6%. For the same molecule, the remaining activity at 0.0001 µM (C3aR L82^2.64A; L82A, Log[JR14a (M)] -10, single replicates, read-out: cAMP response (% Forskolin)) was 93.2%, the remaining activity at 10 pM (C3aR L82^2.64A; L82A, Log[JR14a (M)] -11, single replicates, read-out: cAMP response (% Forskolin)) was 106% and the “ΔpIC50 ± SE of Diff.” value (C3aR L82^2.64A; L82^2.64A relative to WT C3aR) was 0.40 ± 0.14. The IC50 (C3aR L82^2.64A; pIC50 (Replicate), L82^2.64A, individual replicates) was 1.55 nM and 3.39 nM and 1.66 nM and the IC50 (C3aR L82^2.64A; pIC50 ± SEM (Mean), L82^2.64A, mean of independent experiments) was 2.04 nM.
